EC50 data for 32 compounds are collected here from patent US20220213061A9, “HETEROCYCLIC COMPOUNDS FOR MODULATING NR2F6” (TES Pharma S.r.l., priority 2020, published 2022).

Counter-ions that a name gives are not always drawn.

This assay deals with T1, recombinant human NR2F6 protein (Homo sapiens, UniProt P10588).
T1 sequence (P10588 1-404): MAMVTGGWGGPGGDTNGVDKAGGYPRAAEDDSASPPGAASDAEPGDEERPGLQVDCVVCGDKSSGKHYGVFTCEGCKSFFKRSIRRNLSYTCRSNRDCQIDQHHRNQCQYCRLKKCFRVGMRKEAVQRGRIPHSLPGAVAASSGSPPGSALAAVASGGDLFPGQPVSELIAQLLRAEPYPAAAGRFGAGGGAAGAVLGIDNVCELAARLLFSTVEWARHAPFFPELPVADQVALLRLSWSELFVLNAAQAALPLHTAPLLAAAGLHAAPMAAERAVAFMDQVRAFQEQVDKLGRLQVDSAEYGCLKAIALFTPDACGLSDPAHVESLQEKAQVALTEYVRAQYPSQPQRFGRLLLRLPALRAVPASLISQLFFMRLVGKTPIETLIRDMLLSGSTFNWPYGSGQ
Put plainly: Biochemical NR2F6 binding assay (EnSpire label-free). The following applies: label-free binding to immobilized purified recombinant human NR2F6; ligands 1 nM to 100 uM, 1% DMSO. As to the method: Purified recombinant human NR2F6 protein was dissolved in immobilization buffer at pH 4.5 and then immobilized in EnSpire-LFB High-Sensitivity User-Activated Plates at the concentration of 50 μg/well plate and left in incubation for 16 h at 4° C. Wells with only immobilization buffer were used as negative control to check the protein coating efficiency. NR2F6 ligands were resuspended in DMSO at the concentration of 10 mM, then dispensed into a plate containing assay buffer at concentrations ranging from 1 nM to 100 uM using an HP-dispenser. DMSO was normalized at the 1% of volume of each well. The final readings were taken over a period of 30 minutes. The label-free responses were measured as shifts in reflected wavelength and are expressed in picometers (pm). Results were analyzed using the EnSpire label-free user interface software, and EC50 and graphs were generated using GraphPad PRISM software. In the tables below, A is <1 μM; B is 1 to 10 μM; C is 10 to 50 μM; and D is >50 μM.

Turning to `Cc1cccc(Oc2cccc(NC(=O)[C@H]3CNC[C@@H]3c3ccccc3)c2)c1` (racemic) [Compound I-97, (±)-trans-4-Phenyl-N-[3-(3-methylphenoxy)phenyl]pyrrolidine-3-carboxamide hydrochloride], the EC50 is 1 to 10 µM.

Regarding `O=C(Nc1ccc(Oc2cccnc2)cc1)[C@H]1CNC[C@@H]1c1ccccc1` (racemic) [Compound I-70, (±)-trans-4-Phenyl-N-[4-(pyridin-3-yloxy)phenyl]pyrrolidine-3-carboxamide dihydrochloride], the EC50 was greater than 50 µM.

In the case of `O=C(Nc1cccc2cnccc12)[C@H]1CNC[C@H]1c1ccccc1` [Compound I-88, (3R,4R)—N-(Isoquinolin-5-yl)-4-phenylpyrrolidine-3-carboxamide dihydrochloride], the EC50 lay within 1 to 10 µM.

Consider `O=C(Nc1cccc2cnccc12)N1CCC(c2ccccc2)C1` (centres unmarked) [Compound I-79, N-(Isoquinolin-5-yl)-3-phenylpyrrolidine-1-carboxamide], for which the EC50 is greater than 50 µM.

With `O=C(Nc1cccc(-c2ccccc2)c1)[C@@H]1CNC[C@H]1c1ccccc1F` (racemic) [Compound I-28, (±)-trans-4-(2-Fluorophenyl)-pyrrolidine-3-carboxylic acid biphenyl-3-ylamide hydrochloride], the EC50 was greater than 50 µM.

For `O=C(Nc1cccc(-c2cccnc2)c1)[C@H]1CNC[C@@H]1C1CCCCC1` (racemic) [Compound I-71, (±)-trans 4-Cyclohexyl-N-[3-(pyridin-3-yl)phenyl]pyrrolidine-3-carboxamide dihydrochloride], the EC50 lay in the range of 1 to 10 µM.

With `O=C(N[C@H]1C[C@H](c2ccccc2)C1)[C@@H]1CNC[C@H]1c1ccccc1` [Compound I-117, (3S,4R)-4-Phenyl-N-(trans-3-phenylcyclobutyl)pyrrolidine-3-carboxamide hydrochloride], the EC50 lay in the range of 1 to 10 µM.

`Cc1ccc(Oc2cccc(NC(=O)[C@H]3CNC[C@@H]3c3ccccc3)c2)cn1` (racemic) [Compound I-105, (±)-trans-4-Phenyl-N-{3-[(6-methylpyridin-3-yl)oxy]phenyl}pyrrolidine-3-carboxamide dihydrochloride]: the 50% effective concentration (EC50) was 1 to 10 µM.

As to `O=C(N[C@H]1CC[C@H](O)CC1)[C@H]1CNC[C@@H]1c1ccccc1` [Compound I-36, (3R,4S)—N-[(1,4-trans)-4-Hydroxycyclohexyl]-4-phenylpyrrolidine-3-carboxamide hydrochloride], the EC50 was greater than 50 µM.

Take `O=C(Nc1cccc(Oc2ccc(C(F)(F)F)nc2)c1)[C@H]1CNC[C@@H]1c1ccccc1` [Compound I-119, 3R,4S)-4-Phenyl-N-(3-{[6-(trifluoromethyl)pyridin-3-yl]oxy}phenyl) pyrrolidine-3-carboxamide dihydrochloride]: the 50% effective concentration (EC50) was in the range of 1 to 10 µM.

For `O=C(Nc1ccc(-c2cccnc2)cc1)[C@@H]1CNC[C@H]1c1ccccc1` [Compound I-41, (3S,4R)-4-Phenyl-N-[4-(pyridin-3-yl)phenyl]pyrrolidine-3-carboxamide dihydrochloride], the EC50 was in the range of 1 to 10 µM.

With `O=C(Nc1ccc(-c2ccc(C(F)(F)F)nc2)cc1)[C@@H]1CNC[C@H]1c1ccccc1` [Compound I-103, (3S,4R)-4-Phenyl-N-[4-[6-(trifluoromethyl)pyridin-3-yl]phenyl]pyrrolidine-3-carboxamide hydrochloride], the EC50 was less than 1 µM.

For the compound `O=C(NCc1ccncc1)[C@H]1CNC[C@@H]1c1ccccc1` [Compound I-31, (3R,4S)-4-Phenyl-N-(pyridin-4-ylmethyl)pyrrolidine-3-carboxamide dihydrochloride], the EC50 lay within 1 to 10 µM.

Take `O=C(Nc1cccc(-c2ccccc2)c1)[C@@H]1CNC[C@H]1c1cccc(F)c1` (racemic) [Compound I-27, (±)-trans-N-(Biphenyl-3-yl)-4-(3-fluorophenyl)pyrrolidine-3-carboxamide hydrochloride]: the EC50 is greater than 50 µM.

For the compound `O=C(Nc1cccc(-c2ccccc2)c1)[C@H]1CNC[C@@H]1c1ccccc1` [Compound I-37, (3R,4S)—N-(Biphenyl-3-yl)-4-phenylpyrrolidine-3-carboxamide hydrochloride], the EC50 was 1 to 10 µM.

On to `O=C(Nc1cccc(-c2cccnc2)c1)[C@H]1CNC[C@@H]1Cc1ccccc1` (racemic) [Compound I-72, (±)-trans 4-Benzyl-N-[3-(pyridin-3-yl)phenyl]pyrrolidine-3-carboxamide dihydrochloride], for which the EC50 was greater than 50 µM.

For the compound `O=C(Nc1ccc(-c2cccnc2)cc1)[C@@H]1CNC[C@H]1c1ccccc1` (racemic) [Compound I-25, (±)-trans-4-Phenyl-N-[4-(pyridin-3-yl)phenyl]pyrrolidine-3-carboxamide dihydrochloride], the EC50 was in the range of 1 to 10 µM.

Consider `O=C(Nc1cccc(Oc2ccc(F)cc2)c1)[C@H]1CNC[C@@H]1c1ccccc1` (racemic) [Compound I-93, (±)-trans-N-[3-(4-Fluorophenoxy)phenyl]-4-phenylpyrrolidine-3-carboxamide hydrochloride], for which the EC50 was less than 1 µM.

`O=C(Nc1cccc2c1OCCO2)[C@H]1CNC[C@@H]1c1ccccc1` (racemic) [Compound I-65, (±)-trans-N-(2,3-Dihydro-1,4-benzodioxin-5-yl)-4-phenylpyrrolidine-3-carboxamide hydrochloride]: the EC50 is greater than 50 µM.

Regarding `O=C(c1ccccc1)c1cccc(NC(=O)[C@H]2CNC[C@@H]2c2ccccc2)c1` (racemic) [Compound I-94, (±)-trans-4-Phenyl-N-[3-(phenylcarbonyl)phenyl]pyrrolidine-3-carboxamide hydrochloride], the EC50 was 1 to 10 µM.

Regarding `O=C(Nc1cccc2cnccc12)[C@H]1CNC[C@@H]1c1ccccc1` [Compound I-29, (3R,4S)—N-(Isoquinolin-5-yl)-4-phenylpyrrolidine-3-carboxamide], the EC50 is less than 1 µM.

As to `S=C(Nc1cccc2cnccc12)O[C@@H]1CNC[C@H]1c1ccccc1` (racemic) [Compound I-2, (±)-trans-O-(4-Phenylpyrrolidin-3-yl) isoquinolin-5-ylcarbamothioate], the EC50 lay within 1 to 10 µM.

Consider `O=C(Nc1cccc(Oc2ccc(C(F)(F)F)nc2)c1)[C@@H]1CNC[C@H]1c1ccccc1` [Compound I-120, (3S,4R)-4-Phenyl-N-(3-{[6-(trifluoromethyl)pyridin-3-yl]oxy}phenyl) pyrrolidine-3-carboxamide dihydrochloride], for which the half-maximal effective concentration (EC50) lay in the range of 1 to 10 µM.

As for `O=C(NCc1cccc2cnccc12)[C@@H]1CNC[C@H]1c1ccccc1` [Compound I-95, (3S,4R)—N-(Isoquinolin-5-ylmethyl)-4-phenylpyrrolidine-3-carboxamide dihydrochloride], the EC50 lay within 1 to 10 µM.

`O=C(Nc1cccc2ocnc12)[C@H]1CNC[C@@H]1c1ccccc1` (racemic) [Compound I-76, (±)-trans-N-(1,3-Benzoxazol-4-yl)-4-phenylpyrrolidine-3-carboxamide dihydrochloride]: the EC50 is greater than 50 µM.

On to `O=C(Nc1cccc(-c2cccnc2)c1)c1c[nH]cc1-c1ccccc1` [Compound I-51, 4-Phenyl-N-[3-(pyridin-3-yl)phenyl]-1H-pyrrole-3-carboxamide], for which the EC50 is greater than 50 µM.

Regarding `O=C(Nc1cccc2cnccc12)O[C@@H]1CNC[C@H]1c1ccccc1` (racemic) [Compound I-4, (±)-trans-4-Phenylpyrrolidin-3-yl isoquinolin-5-ylcarbamate], the EC50 was in the range of 1 to 10 µM.

As for `O=C(Nc1cccc(-c2cccnc2)c1)[C@@H]1CN(Cc2ccccc2)C[C@H]1c1ccccc1` (racemic) [Compound I-63, (±)-trans-1-Benzyl-4-phenyl-N-[3-(pyridin-3-yl)phenyl]pyrrolidine-3-carboxamide], the EC50 is 1 to 10 µM.

In the case of `O=C(Nc1cccc2cnccc12)[C@@H]1CNC[C@H]1c1nccs1` [Compound I-59, (3S,4S)—N-(Isoquinolin-5-yl)-4-(1,3-thiazol-2-yl)pyrrolidine-3-carboxamide dihydrochloride], the EC50 was greater than 50 µM.

`c1ccc([C@H]2CNC[C@@H]2Nc2nc3cnccc3s2)cc1` (racemic) [Compound I-10, (±)-trans-N-[4-Phenylpyrrolidin-3-yl][1,3]thiazolo[4,5-c]pyridin-2-amine hydrochloride]: the EC50 is greater than 50 µM.

As to `O=C(Nc1cc2ccccc2cn1)[C@@H]1CNC[C@H]1c1ccccc1` (racemic) [Compound I-14, (±)-trans-N-(Isoquinolin-3-yl)-4-phenylpyrrolidine-3-carboxamide dihydrochloride], the EC50 was in the range of 1 to 10 µM.

Turning to `O=C(Nc1cccc(-c2ccccc2)c1)[C@@H]1CNC[C@H]1c1cccs1` (racemic) [Compound I-22, (±)-trans-N-(Biphenyl-3-yl)-4-(thiophen-2-yl)pyrrolidine-3-carboxamide hydrochloride], the EC50 was less than 1 µM.
